Target: Sodium channel protein type 9 subunit alpha (Homo sapiens, UniProt Q15858)
Assay: Radioligand Binding Assay
Settings: pH 7.4; 25 °C
Procedure: Binding of this radioligand was preformed in 5 mL borosilicate glass test tubes at room temperature. […] Non-specific binding was determined in the presence of 1 uM unlabelled compound. […] [3H]compound bound to filters was quantified by liquid scintillation counting.

Chain of Sodium channel protein type 9 subunit alpha (Q15858 whole entry): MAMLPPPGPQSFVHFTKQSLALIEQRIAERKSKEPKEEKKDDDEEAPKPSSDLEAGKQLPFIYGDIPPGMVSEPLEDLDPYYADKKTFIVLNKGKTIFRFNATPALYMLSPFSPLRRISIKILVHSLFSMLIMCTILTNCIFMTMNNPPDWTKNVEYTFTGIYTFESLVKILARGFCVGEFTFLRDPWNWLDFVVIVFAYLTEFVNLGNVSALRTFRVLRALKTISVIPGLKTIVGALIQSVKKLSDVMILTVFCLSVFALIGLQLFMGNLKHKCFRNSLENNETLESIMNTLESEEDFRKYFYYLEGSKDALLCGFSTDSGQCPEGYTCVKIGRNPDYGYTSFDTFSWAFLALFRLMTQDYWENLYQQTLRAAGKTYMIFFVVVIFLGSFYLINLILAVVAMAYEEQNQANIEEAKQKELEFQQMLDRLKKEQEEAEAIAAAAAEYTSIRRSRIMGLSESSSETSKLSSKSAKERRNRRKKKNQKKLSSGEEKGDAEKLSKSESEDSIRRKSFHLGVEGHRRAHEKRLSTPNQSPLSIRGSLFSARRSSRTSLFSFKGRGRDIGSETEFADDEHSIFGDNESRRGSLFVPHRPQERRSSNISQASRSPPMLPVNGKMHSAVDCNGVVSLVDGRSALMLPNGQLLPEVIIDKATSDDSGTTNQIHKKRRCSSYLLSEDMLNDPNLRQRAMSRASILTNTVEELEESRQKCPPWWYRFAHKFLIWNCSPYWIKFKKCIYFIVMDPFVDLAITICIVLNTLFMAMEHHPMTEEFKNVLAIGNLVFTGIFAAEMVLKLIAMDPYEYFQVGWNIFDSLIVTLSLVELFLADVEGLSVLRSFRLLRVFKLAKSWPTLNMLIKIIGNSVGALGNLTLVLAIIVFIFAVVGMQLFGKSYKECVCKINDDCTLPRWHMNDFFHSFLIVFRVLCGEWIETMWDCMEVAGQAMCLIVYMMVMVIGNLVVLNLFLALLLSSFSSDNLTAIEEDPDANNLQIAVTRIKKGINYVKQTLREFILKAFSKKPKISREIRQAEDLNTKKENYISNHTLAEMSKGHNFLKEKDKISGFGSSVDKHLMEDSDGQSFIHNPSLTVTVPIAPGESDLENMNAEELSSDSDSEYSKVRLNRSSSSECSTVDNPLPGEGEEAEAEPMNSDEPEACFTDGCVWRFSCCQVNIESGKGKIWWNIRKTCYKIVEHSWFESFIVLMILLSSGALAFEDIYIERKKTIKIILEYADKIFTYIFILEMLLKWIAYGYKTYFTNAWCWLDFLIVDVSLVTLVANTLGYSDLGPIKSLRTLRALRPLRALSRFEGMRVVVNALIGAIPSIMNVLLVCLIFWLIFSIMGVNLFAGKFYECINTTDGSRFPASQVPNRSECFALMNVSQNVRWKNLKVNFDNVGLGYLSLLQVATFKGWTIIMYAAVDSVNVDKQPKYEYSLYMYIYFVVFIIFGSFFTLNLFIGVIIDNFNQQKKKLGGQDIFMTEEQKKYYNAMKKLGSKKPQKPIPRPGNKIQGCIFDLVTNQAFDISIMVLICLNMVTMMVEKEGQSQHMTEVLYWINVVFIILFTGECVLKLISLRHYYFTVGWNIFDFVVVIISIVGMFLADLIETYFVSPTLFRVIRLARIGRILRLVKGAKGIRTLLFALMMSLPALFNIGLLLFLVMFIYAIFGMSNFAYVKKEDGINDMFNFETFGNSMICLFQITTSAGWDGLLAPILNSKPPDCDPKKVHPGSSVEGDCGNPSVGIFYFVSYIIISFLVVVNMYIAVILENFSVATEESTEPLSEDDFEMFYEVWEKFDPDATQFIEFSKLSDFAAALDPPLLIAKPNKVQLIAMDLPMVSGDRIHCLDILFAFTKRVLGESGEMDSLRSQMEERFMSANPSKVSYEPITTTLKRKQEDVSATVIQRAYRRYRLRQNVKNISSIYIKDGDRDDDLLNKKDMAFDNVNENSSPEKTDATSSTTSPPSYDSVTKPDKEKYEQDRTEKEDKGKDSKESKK

Row | Structure (SMILES) | IC50 [nM]
1 | O=C(NS(=O)(=O)C1CC1)c1cc(C2CC2)c(CN2CCC(Oc3ccc(Cl)cc3)CC2)cc1F [US9694002, 504] | 16
2 | CS(=O)(=O)NC(=O)c1cc(C2CC2)c(CN2CCC(Oc3ccc(Cl)cc3)CC2)cc1F [US9694002, 503] | 30
